Data taken from US20240109918A1, “HETEROCYCLIC COMPOUNDS AND USES THEREOF” (Kumquat Biosciences Inc., priority 2022, published 2024).

Assays:
KRASG12D = target: T1, KRASG12D (Homo sapiens, UniProt P01116, G12D); assay: Bio-Biochem-PPI-HTRF Ras-SOS1 interaction assay (KRAS G12D); assay type: biochemical; conditions: 5 nM
T1 construct: made in house; host or cells: E. coli BL21 (DE3)
Method in brief: (§1)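 GST-tagged K-Ras (wt or G12D) with anti-GST-Eu(K) donor was mixed with His-hSOS1 and anti-6His-XL665 acceptor in HEPES pH 7.4/NaCl/DTT/BSA/Igepal buffer, with compound in duplicate from 10 μM down to 0.01 μM. After about 10 min or longer, HTRF 665/620 nm ratio gave IC50.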

KRASwt = target: T2, KRASwt (Homo sapiens, UniProt P01116); assay: Bio-Biochem-PPI-HTRF Ras-SOS1 interaction assay (KRAS wt); assay type: biochemical; conditions: 5 nM
T2 construct: made in house; host or cells: E. coli BL21 (DE3)
Method in brief: as §1

T2 sequence (P01116 1-188 isoform P01116-2): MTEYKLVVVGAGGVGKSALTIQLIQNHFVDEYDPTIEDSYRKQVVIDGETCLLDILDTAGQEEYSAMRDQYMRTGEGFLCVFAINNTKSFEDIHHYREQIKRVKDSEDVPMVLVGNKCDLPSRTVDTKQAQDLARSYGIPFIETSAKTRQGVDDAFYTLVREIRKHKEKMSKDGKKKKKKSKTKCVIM
T1 sequence (P01116 1-188 isoform P01116-2 G12D): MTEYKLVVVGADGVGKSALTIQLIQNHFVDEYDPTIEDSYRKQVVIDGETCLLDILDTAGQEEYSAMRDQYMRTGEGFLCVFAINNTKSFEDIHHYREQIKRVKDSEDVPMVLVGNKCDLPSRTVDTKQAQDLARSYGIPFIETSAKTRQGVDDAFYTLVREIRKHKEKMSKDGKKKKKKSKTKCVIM

| Compound | IC50 (KRASG12D) [µM] | IC50 (KRASwt) [µM] |
| --- | --- | --- |
| C[C@H](Oc1nc(N2CCCC3(CNC3)C2)c2cc(Cl)c(-c3ccc(F)c4sc(N)c(C#N)c34)c(F)c2n1)[C@@H]1CCCN1C [compound 122, 2-amino-4-(6-chloro-8-fluoro-2-((S)-1-((S)-1-methylpyrrolidin-2-yl)ethoxy)-4-(2,6-diazaspiro[3.5]nonan-6-yl)quinazolin-7-yl)-7-fluorobenzo[b]thiophene-3-carbonitrile] | < 5 | < 5 |
| CC(C)=C(C#N)C(=O)N1CC2(C1)CN(c1nc(OC[C@@]34CCCN3C[C@H](F)C4)nc3c(F)c(-c4ccc(F)c5sc(N)c(C#N)c45)c(Cl)cc13)CCO2 [compound 245, 2-amino-4-(6-chloro-4-(2-(2-cyano-3-methylbut-2-enoyl)-5-oxa-2,8-diazaspiro[3.5]nonan-8-yl)-8-fluoro-2-(((2R,7aS)-2-fluorotetrahydro-1H-pyrrolizin-7a(5H)-yl)methoxy)quinazolin-7-yl)-7-fluorobenzo[b]thiophene-3-carbonitrile] | < 5 | < 5 |
| CC(C)(O)C(F)(F)C(=O)N1CC2(CCCCN(c3nc(OC[C@@]45CCCN4C[C@H](F)C5)nc4c(F)c(-c5ccc(F)c6sc(N)c(C#N)c56)c(Cl)cc34)C2)C1 [compound 339, 2-amino-4-(6-chloro-4-(2-(2,2-difluoro-3-hydroxy-3-methylbutanoyl)-2,6-diazaspiro[3.6]decan-6-yl)-8-fluoro-2-(((2R,7aS)-2-fluorotetrahydro-1H-pyrrolizin-7a(5H)-yl)methoxy)quinazolin-7-yl)-7-fluorobenzo[b]thiophene-3-carbonitrile] | < 5 | < 5 |
| N#Cc1c(N)sc2c(F)ccc(-c3c(Cl)cc4c(N5CCCCC6(CN(C(=O)/C=C/C(F)(F)F)C6)C5)nc(OC[C@@]56CCCN5C[C@H](F)C6)nc4c3F)c12 [compound 207, 2-amino-4-(6-chloro-8-fluoro-2-(((2R,7aS)-2-fluorotetrahydro-1H-pyrrolizin-7a(5H)-yl)methoxy)-4-(2-((E)-4,4,4-trifluorobut-2-enoyl)-2,6-diazaspiro [3.6]decan-6-yl)quinazolin-7-yl)-7-fluorobenzo[b]thiophene-3-carbonitrile] | < 5 | < 5 |
| N#Cc1c(N)sc2c(F)ccc(-c3c(Cl)cc4c(N5CCCCC6(CN(C(=O)C7(C#N)CC7)C6)C5)nc(OC[C@@]56CCCN5C[C@H](F)C6)nc4c3F)c12 [compound 242, 2-amino-4-(6-chloro-4-(2-(1-cyanocyclopropane-1-carbonyl)-2,6-diazaspiro[3.6]decan-6-yl)-8-fluoro-2-(((2R,7aS)-2-fluorotetrahydro-1H-pyrrolizin-7a(5H)-yl)methoxy)quinazolin-7-yl)-7-fluorobenzo[b]thiophene-3-carbonitrile] | < 5 | < 5 |
| N#CN1CC2(CCCN(c3nc(OC[C@@]45CCCN4C[C@H](F)C5)nc4c(F)c(-c5ccc(F)c6sc(N)nc56)c(Cl)cc34)C2)C1 [compound 177, 6-(7-(2-amino-7-fluorobenzo [d]thiazol-4-yl)-6-chloro-8-fluoro-2-(((2R,7aS)-2-fluorotetrahydro-1H-pyrrolizin-7a(5H)-yl)methoxy)quinazolin-4-yl)-2,6-diazaspiro[3.5]nonane-2-carbonitrile] | < 5 | < 5 |
| CN1CCC[C@H]1COc1nc(N2CCCC3(CN(C(N)=O)C3)C2)c2cc(Cl)c(-c3cccc4sc(N)nc34)c(F)c2n1 [compound 124, 6-(7-(2-aminobenzo[d]thiazol-4-yl)-6-chloro-8-fluoro-2-(((S)-1-methylpyrrolidin-2-yl)methoxy)quinazolin-4-yl)-2,6-diazaspiro[3.5]nonane-2-carboxamide] | < 5 | < 5 |
| CC(=O)N1CC2(CCN(c3nc(OC[C@@]45CCCN4C[C@H](F)C5)nc4c(F)c(-c5ccc(F)c6sc(N)nc56)c(Cl)cc34)CC2)C1 [compound 165, 1-(7-(7-(2-amino-7-fluorobenzo[d]thiazol-4-yl)-6-chloro-8-fluoro-2-(((2R,7aS)-2-fluorotetrahydro-1H-pyrrolizin-7a(5H)-yl)methoxy)quinazolin-4-yl)-2,7-diazaspiro[3.5]nonan-2-yl)ethan-1-one] | < 5 | < 5 |
| C[C@H](Oc1nc(N2CCCC3(CN(C(=O)c4ccnn4C)C3)C2)c2cc(Cl)c(-c3ccc(F)c4sc(N)c(C#N)c34)c(F)c2n1)[C@@H]1CCCN1C [compound 127, 2-amino-4-(6-chloro-8-fluoro-4-(2-(1-methyl-1H-pyrazole-5-carbonyl)-2,6-diazaspiro[3.5]nonan-6-yl)-2-((S)-1-((S)-1-methylpyrrolidin-2-yl)ethoxy)quinazolin-7-yl)-7-fluorobenzo[b]thiophene-3-carbonitrile] | < 5 | < 5 |
| N#Cc1c(N)sc2c(F)ccc(-c3c(Cl)cc4c(N5CCCCC6(CN(C(=O)CC78CC(F)(C7)C8)C6)C5)nc(OC[C@@]56CCCN5C[C@H](F)C6)nc4c3F)c12 [compound 282, 2-amino-4-(6-chloro-8-fluoro-4-(2-(2-(3-fluorobicyclo[1.1.1]pentan-1-yl)acetyl)-2,6-diazaspiro[3.6]decan-6-yl)-2-(((2R,7aS)-2-fluorotetrahydro-1H-pyrrolizin-7a(5H)-yl)methoxy)quinazolin-7-yl)-7-fluorobenzo[b]thiophene-3-carbonitrile] | < 5 | < 5 |

More lines, now with the values ahead:

| IC50 (KRASG12D) [µM] | IC50 (KRASwt) [µM] | Compound |
| --- | --- | --- |
| < 5 | < 5 | N#Cc1c(N)sc2c(F)ccc(-c3c(Cl)cc4c(N5CCCCC6(CN(C(=O)C7(CN8CCOCC8)CC7)C6)C5)nc(OC[C@@]56CCCN5C[C@H](F)C6)nc4c3F)c12 [compound 278, 2-amino-4-(6-chloro-8-fluoro-2-(((2R,7aS)-2-fluorotetrahydro-1H-pyrrolizin-7a(5H)-yl)methoxy)-4-(2-(1-(morpholinomethyl)cyclopropane-1-carbonyl)-2,6-diazaspiro[3.6]decan-6-yl)quinazolin-7-yl)-7-fluorobenzo[b]thiophene-3-carbonitrile] |
| < 5 | < 5 | C#Cc1c(F)ccc2cc(O)cc(-c3ncc4c(N5CCCC6(CN(C(=O)[C@@H]7C[C@H]7C#N)C6)C5)nc(OC[C@@]56CCCN5C[C@H](F)C6)nc4c3F)c12 [compound 164, (1R,2R)-2-(6-(7-(8-ethynyl-7-fluoro-3-hydroxynaphthalen-1-yl)-8-fluoro-2-(((2R,7aS)-2-fluorotetrahydro-1H-pyrrolizin-7a(5H)-yl)methoxy)pyrido [4,3-d]pyrimidin-4-yl)-2,6-diazaspiro[3.5]nonane-2-carbonyl)cyclopropane-1-carbonitrile] |
| ≥ 5 | < 5 | C[C@H](Oc1nc(N2CCOC3(CNC3)C2)c2cc(Cl)c(-c3ccc(F)c4sc(N)c(C#N)c34)c(F)c2n1)[C@@H]1CCCN1C (single isomer, unassigned; atropisomer 1) [compound 128] |
| < 5 | < 5 | N#Cc1c(N)sc2c(F)ccc(-c3c(Cl)cc4c(N5CCCCC6(CN(C(=O)C[C@@H]7CCOC7)C6)C5)nc(OC[C@@]56CCCN5C[C@H](F)C6)nc4c3F)c12 [compound 259, 2-amino-4-(6-chloro-8-fluoro-2-(((2R,7aS)-2-fluorotetrahydro-1H-pyrrolizin-7a(5H)-yl)methoxy)-4-(2-(2-((S)-tetrahydrofuran-3-yl)acetyl)-2,6-diazaspiro[3.6]decan-6-yl)quinazolin-7-yl)-7-fluorobenzo[b]thiophene-3-carbonitrile] |
| < 5 | < 5 | CC1(O)CCN(c2nc(OC[C@@]34CCCN3C[C@H](F)C4)nc3c(F)c(-c4ccc(F)c5sc(N)c(C#N)c45)c(Cl)cc23)CC2(CN(C(=O)[C@@H]3CC3(F)F)C2)C1 (stereo partly drawn) [compound 218, 2-amino-4-(6-chloro-4-(2-((S)-2,2-difluorocyclopropane-1-carbonyl)-9-hydroxy-9-methyl-2,6-diazaspiro [3.6]decan-6-yl)-8-fluoro-2-(((2R,7aS)-2-fluorotetrahydro-1H-pyrrolizin-7a(5H)-yl)methoxy)quinazolin-7-yl)-7-fluorobenzo[b]thiophene-3-carbonitrile] |
| < 5 | < 5 | N#Cc1c(N)sc2c(F)ccc(-c3c(Cl)cc4c(N5CCOC6(CN(C(=O)N7CC(C#N)C7)C6)C5)nc(OC[C@@]56CCCN5C[C@H](F)C6)nc4c3F)c12 [compound 257, 1-(8-(7-(2-amino-3-cyano-7-fluorobenzo[b]thiophen-4-yl)-6-chloro-8-fluoro-2-(((2R,7aS)-2-fluorotetrahydro-1H-pyrrolizin-7a(5H)-yl)methoxy)quinazolin-4-yl)-5-oxa-2,8-diazaspiro[3.5]nonane-2-carbonyl)azetidine-3-carbonitrile] |
| < 5 | < 5 | C[C@H](Oc1nc(N2CCCC3(CN(C(=O)[C@@H]4C[C@H]4C#N)C3)C2)c2cc(Cl)c(-c3ccc(F)c4sc(N)c(C#N)c34)c(F)c2n1)[C@@H]1CCCN1C [compound 105, 2-amino-4-(6-chloro-4-(2-((1R,2R)-2-cyanocyclopropane-1-carbonyl)-2,6-diazaspiro[3.5]nonan-6-yl)-8-fluoro-2-((S)-1-((S)-1-methylpyrrolidin-2-yl)ethoxy)quinazolin-7-yl)-7-fluorobenzo[b]thiophene-3-carbonitrile] |
| ≥ 5 | < 5 | CC1(C)CN(c2nc(OC[C@@]34CCCN3C[C@H](F)C4)nc3c(F)c(-c4ccc(F)c5sc(N)nc45)c(Cl)cc23)CC2(CN(C#N)C2)O1 [compound 180, 8-(7-(2-amino-7-fluorobenzo[d]thiazol-4-yl)-6-chloro-8-fluoro-2-(((2R,7aS)-2-fluorotetrahydro-1H-pyrrolizin-7a(5H)-yl)methoxy)quinazolin-4-yl)-6,6-dimethyl-5-oxa-2,8-diazaspiro[3.5] nonane-2-carbonitrile] |
